Experimental findings from patent publication US11504394B2, “Targeted ionophore-based metal delivery” (The Regents of the University of California, priority 2018, dated 2022) are described below.

The nature of data set [1]: Retention of copper in presence of excess Zn^2+ and Fe^2+. The format is physicochemical. The note with it: 1000-fold excess of Zn^2+ and Fe^2+. The procedure: All spectroscopic measurements were performed in 20 mM PBS, pH 7.4 unless otherwise indicated. Absorption spectra were acquired on a Varian Cary 50 spectrophotometer.
The test system of data set [2] is HepG2 (ASGPR-expressing) cells. The data set can be described thus: Cellular copper delivery by ICP-MS, HepG2. The format is cell-based. The procedure:
Cells were maintained by the UC Berkeley Tissue Culture Facility. HEK 293T and HepG2 cells were maintained as a monolayer in exponential growth at 37° C. in a 5% CO2 atmosphere. HEK 293T cells were maintained in Dulbecco's Modified Eagle Medium (DMEM, Gibco) supplemented with 10% fetal bovine serum (FBS, Hyclone), and glutamax (Gibco). HepG2 cells were maintained in low glucose DMEM with L-glutamine and sodium pyruvate (Gibco). One day before ionophore treatment, cells were passaged and plated in DMEM with glutamax supplemented with 10% FBS on either poly D-lysine-coated (HEK 293T) or gelatin-coated (HepG2) sterile 6-well Corning polystyrene plates. Cells were grown to 60 to 80% confluency prior to ionophore treatment.
Cells were washed twice with serum-free DMEM. 2 mM stock solutions of Cu(gtsm) or Gal-Cu(gtsm) were diluted in serum-free DMEM to a final ionophore concentration of 4 μM. 2 mL of vehicle (0.2% DMSO in DMEM), 4 μM Cu(gtsm), or 4 μM Gal-Cu(gtsm) were then added to the 6-well plates and incubated for three hours. For the galactose competition experiment, cells were washed twice with serum-free DMEM, then incubated with 2 mL serum-free DMEM either with or without 1 M D-galactose (Sigma Aldrich) for 15 minutes. 4 μL of DMSO, 2 mM Cu(gtsm), or 10 mM Gal-Cu(gtsm) was diluted with 300 μL of cell media, which was then mixed back into each well. Cells were then incubated for one hour. Cells were then rinsed twice with ice-cold EDTA (1 mM in 50 mM HEPES buffer, pH=7.4) to remove cell surface-bound copper and rinsed twice with ice-cold 50 mM HEPES buffer (pH=7.4), followed by the addition of 215 μL concentrated nitric acid (BDH Aristar Ultra). The plates were sealed with Parafilm and incubated on a shaker overnight. Samples (150 μL) were further diluted in 2 mL 2% nitric acid (made freshly from concentrated nitric acid and Milli-Q water) in 15 mL tubes (Sarstedt) and analyzed on a Thermo Fisher iCAP Qc ICP mass spectrometer in kinetic energy discrimination (KED) mode against a standard curve of known copper and phosphorus concentrations (CMS-5, Inorganic Ventures), with Ga (20 μg/L, Inorganic Ventures) as an internal standard. Each experiment was carried out twice and each condition was repeated in at least triplicate.

Data set [3] has as its system blood urea nitrogen (BUN). Nature of the data set: Blood urea nitrogen (BUN) assay on serum. The format is in vivo, mice. The note with it: 0.75 mg Cu/kg. The procedure: Mice were immediately euthanized by cervical dislocation.
Liver lysate (TBARS Assay via TCA Method, Cayman Chemical) and serum (BUN Assay, Invitrogen; ALT Assay, Cayman Chemical) samples were processed according to manufacturer instructions; sample concentration was selected based on initial dilution screening to fall within linear range of the standard curve. All samples were analyzed in triplicate.

The next data set has as its system MT-I/MT-II. The data set can be described thus: Western blot of liver lysates, MT-I/II. The format is in vivo, mouse. As to conditions: 6 hours and 24 hours. How it is done:
Frozen mouse livers were minced into 50 mg samples on dry ice and homogenized in ice-cold RIPA buffer (25 mM Tris.HCl pH 7.6, 150 mM NaCl, 1% NP-40, 1% sodium deoxycholate, 0.1% SDS) containing protease inhibitor cocktail with EDTA (Roche) at 100 mg/mL using a hand-held mechanical homogenizer. Homogenates were incubated on ice for 30 min and centrifuged at 12,000×g for 20 min at 4° C. The soluble protein lysates were collected from underneath the upper lipid layer with a pipette and transferred to new tubes. Protein concentration was determined using a detergent-compatible Bradford Assay (Pierce).
Protein lysates were denatured in NuPAGE lithium dodecyl sulfate sample buffer (Invitrogen) containing 10% v/v β-mercaptoethanol as a reducing agent. […] The membranes were washed 5 times for 5 minutes in TBST, then visualized using enhanced chemiluminescence (Western Lighting Plus for visualizing CCS and ATP7B, Perkin Elmer; Western Clarity Max for visualizing CTR1 and MT, Bio-Rad) recorded on a BioRad GelDoc imaging station. β-actin was probed to determine equal loading using anti-β-actin (sc-69879, Santa Cruz Biotechnology) and AlexaFluor 647-conjugated anti-mouse IgG (A31571, Molecular Probes) antibodies at 1:5000 and 1:2500 dilutions, respectively, with visualization using fluorescence recorded on a BioRad GelDoc imaging station.
For orientation: A western blot detects proteins with antibodies after separation by electrophoresis.

Another data set concerns ATP7B Cu export protein. The data set can be described thus: Western blot ATP7B in high fat diet mice. The format is in vivo.

Take `CNC1=N[N+]2=CC=[N+]3N=C(NCCOCCOCCOC4OC(CO)C(O)C(O)C4NC(C)=O)[S][Cu-2]23[S]1` (centres unmarked) [Gal-Cu(gtsm)]: the “retention of copper in presence of other metal ions” value in data set [1] was “retains copper selectively”. For the same compound, the “Cu increase relative to basal levels (^63Cu/^31P)” value in data set [2] (HepG2, 4 μM, three hours, serum-free DMEM) is 4 fold. Also, the temperature dependent uptake entry in data set [2] (HepG2, 4° C. vs 37° C.) is “much higher uptake at 37 °C than at 4 °C”. Further, the “Cu delivery in presence of D-galactose (competitive ASGPR ligand)” value in data set [2] (HepG2, D-galactose 1 M, one hour, Cu(gtsm) 4 μM, Gal-Cu(gtsm) 20 μM) was “significantly attenuated”. Moreover, the “dose response of cellular copper content” value in data set [2] (HepG2, ICP-MS total copper) is recorded as “robust dose-dependent copper delivery response”. Further, in data set [3], the BUN levels entry is “not”. The “MT-I/MT-II expression in liver” value in the data set on MT-I/MT-II is recorded as “increases dramatically”. For the same compound, the ATP7B expression entry with ATP7B Cu export protein is listed as “reduced expression”.
